Laboratory results reported in patent US20250257034A1, “INDOLE DERIVATIVES AS SEROTONERGIC AGENTS USEFUL FOR THE TREATMENT OF DISORDERS RELATED THERETO” (priority 2023, published 2025).
Where two headings read alike, the source gives them in different places.

Columns and labels:
5-HT2B receptor = 5-HT2B receptor (Homo sapiens, UniProt P41595); experiment: Human 5-HT2B radioligand binding assay ([3H]-LSD); design: host or cells: cell membrane, dosed as 1 unit/well
Method: The objective of this study was to evaluate the binding properties of test compounds on 5-HT2B.
1) The assay buffer was prepared following Table 25-below.
2) Eight doses of reference and test compounds starting from 10 mM stock solution as requested by 5-fold serial dilutions with 100% (v/v) DMSO.
3) UniFilter-96 GF/B plate was pretreated: • a. 50 μl/well of 0.5% (v/v) PEI to UniFilter-96 G F/B plates. The plates were sealed and incubated at 4° C. for 3 hrs. • b. After incubation, the plates were washed 3 times with ice-cold wash buffer (50 mM Tris, pH7.4).
4) Assay plate preparation: • a. Cell membrane was diluted with assay buffer and 330 μl/well added to 96 round deep well plates to reach a concentration of 1 unit/well. • b. Eight concentrations of reference or test compounds were prepared and 110 μl/well added to 96 round deep well plates. • c. [3H]-LSD was diluted with assay buffer to 5 nM (5×final concentration) and 110 μl/well was added to 96 round deep well plates.
5) The plate was centrifuged at 1000 rpm for 30 secs and then agitate at 600 rpm, R.T. for 5 min.
6) The plates were sealed and incubated at 37° C. for 90 min.
7) The incubation was stopped by vacuum filtration onto GF/B filter plates followed by 4 times washing with ice-cold wash buffer (50 mM Tris, pH7.4).
9) The filter plates were sealed and 40 μl/well of scintillation cocktail was added.
10) The plate was read using a Microbeta2 microplate counter.
(§1) For reference and test compounds, the results are expressed as % Inhibition, using the normalization equation: N=100-100x(U-C2)/(C1-C2), where U is the unknown value, Cl is the average of high controls, and C2 is the average of low controls. The IC50 is determined by fitting percentage of inhibition as a function of compound concentrations with Hill equation using XLfit.
1) The assay buffer was prepared following Table 54 below.
7) The incubation was stopped by vacuum filtration onto G F/B filter plates followed by 4 times washing with ice-cold wash buffer (50 mM Tris, pH7.4).
as §1, with “N=100−100×(U−C2)/(C1−C2),” for “N=100-100x(U-C2)/(C1-C2),”, “C1” for “Cl”

[1] = Human liver microsomes stability; type: in vitro ADME; conditions: for half-life at 2 μM / microsomal CLint at 2 μM: 2 μM compound; for microsomal CLint at 2 μM: read-out: CLint (μL/min/mg protein); for CLint scaled at 2 μM: read-out: Scaled-up CLint
Method: (§2) The objective of this study was to estimate in vitro metabolic stability of exemplary compounds of Formula (I) or a pharmaceutically acceptable salt, solvate, and/or prodrug thereof in pooled human, male rat, and male mouse liver microsomes. The concentrations of compounds in reaction systems were evaluated by LC-MS/MS for estimating the stability in pooled human, male rat, and male mouse liver microsomes. The in vitro intrinsic clearances of test compounds were determined as well.
(§3) A master solution in the “Incubation Plate” containing phosphate buffer, ultra-pure H2O, MgCl2 solution and liver microsomes was made according to Table 33. The mixture was pre-warmed at 37° C. water bath for 5 minutes.
(§4) 40 μL of 10 mM nicotinamide adenine dinucleotide phosphate (NADPH) solution was added to each well. The final concentration of NADPH was 1 mM. The negative control samples were prepared by replacing NADPH with 40 μL of ultra-pure H2O. Samples were prepared in duplicate. Negative controls were prepared in singlet.
(§5) The reaction was started with the addition of 4 μL of 200 μM exemplary test compounds of the disclosure or control compounds to each master solution to get the final concentration of 2 μM. This study was performed in duplicate.
(§6) Aliquots of 50 μL were taken from the reaction solution at 0, 15, 30, 45, and 60 minutes. The reaction solutions were stopped by the addition of 4 volumes of cold methanol with IS (100 nM alprazolam, 200 nM imipramine, 200 nM labet alol and 2 μM ketoprofen). Samples were centrifuged at 3,220 g for 40 minutes. Aliquot of 90 μL of the supernatant was mixed with 90 μL of ultra-pure H2O and then was used for LC-MS/MS analysis.
(§7) LC/MS analysis was performed for all samples from this study using a Shimadzu liquid chromatograph separation system equipped with degasser DGU-20A5R; solvent delivery unit LC-30AD; system controller SIL-30AC; column oven CTO-30A; CTC Analytics HTC PAL System. Mass spectrometric analysis was performed using a Triple Quad™ 5500 instrument.
(§8) All calculations were carried out using Microsoft Excel. Peak area ratios of test compound to internal standard (listed in the below table) were determined from extracted ion chromatograms.
(§9) All calculations were carried out using Microsoft Excel. Peak areas were determined from extracted ion chromatograms. The slope value, k, was determined by linear regression of the natural logarithm of the remaining percentage of the parent drug vs. incubation time curve.
(§10) The in vitro half-life (in vitro t1/2) was determined from the slope value:
(§11) Conversion of the in vitro t1/2(min) into the in vitro intrinsic clearance (in vitro CLint, in μL/min/mg proteins) was done using the following equation (mean of duplicate determinations): […]
(§12) A master solution in the “Incubation Plate” containing phosphate buffer, ultra-pure H2O, MgCl2 solution and liver microsomes was made according to Table 63. The mixture was pre-warmed at 37° C. water bath for 5 minutes.
(§13) 40 μL of 10 mM NADPH solution was added to each well. The final concentration of NADPH was 1 mM. The negative control samples were prepared by replacing NADPH with 40 μL of ultra-pure H2O. Samples were prepared in duplicate. Negative controls were prepared in singlet.
(§14) Conversion of the in vitro t1/2(min) into the in vitro intrinsic clearance (in vitro C Lt, in μL/min/mg proteins) was done using the following equation (mean of duplicate determinations): […]

[2] = Rat liver microsomes stability; type: in vitro ADME; conditions: for half-life at 2 μM / CLint scaled at 2 μM / microsomal CLint at 2 μM: male; for half-life at 2 μM / microsomal CLint at 2 μM: 2 μM compound; for CLint scaled at 2 μM: read-out: Scaled-up CLint; for microsomal CLint at 2 μM: rat, read-out: CLint (μL/min/mg protein)
Method: as §2, §3, §4, §5, §6, §7, §8, §9, §10, §11, §12, §13, §14

[3] = human liver microsomes, 0.5 mg/mL
[4] = pooled liver microsomes, rat liver microsomes, 0.5 mg/mL
[5] = Human liver microsomes, 0.5 mg/mL microsomes, 1 mM NADPH, 37° C
[6] = Human liver microsomes, 0.5 mg/mL microsomes, 1 mM NADPH
[7] = liver microsomes, Rat liver microsomes, 0.5 mg/mL microsomes, 1 mM NADPH
[8] = Rat liver microsomes, 0.5 mg/mL microsomes, 1 mM NADPH, 37° C

Chain of 5-HT2B receptor (P41595 whole entry): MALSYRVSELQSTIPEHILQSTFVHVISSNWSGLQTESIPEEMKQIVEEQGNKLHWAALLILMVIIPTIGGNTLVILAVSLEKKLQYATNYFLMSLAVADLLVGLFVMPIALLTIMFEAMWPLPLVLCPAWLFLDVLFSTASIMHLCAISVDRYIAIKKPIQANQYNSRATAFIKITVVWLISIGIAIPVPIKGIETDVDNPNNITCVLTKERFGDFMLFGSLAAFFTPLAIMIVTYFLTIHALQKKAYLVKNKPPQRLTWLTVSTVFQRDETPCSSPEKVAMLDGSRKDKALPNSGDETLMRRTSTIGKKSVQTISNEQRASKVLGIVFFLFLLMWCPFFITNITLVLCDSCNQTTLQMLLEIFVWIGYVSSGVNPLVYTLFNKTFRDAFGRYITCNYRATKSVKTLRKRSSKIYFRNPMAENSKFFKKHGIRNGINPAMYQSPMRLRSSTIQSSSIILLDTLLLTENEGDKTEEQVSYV

With COc1ccc2[nH]cc(CCN(C)CCOC(F)F)c2c1 [Compound I-71, 2-(Difluoromethoxy)-N-(2-(5-methoxy-1H-indol-3-yl)ethyl)-N-methylethan-1-amine] the IC50 (5-HT2B receptor; [3H]-LSD displacement (Table 55), read-out: 5-HT2B, IC50) was 171 nM, the Ki (5-HT2B receptor; [3H]-LSD displacement (Table 55), read-out: 5-HT2B, Ki) was 88.6 nM and the “Predicted hepatic CL” value ([1]; human liver microsomes) was 17.80 mL/min/kg. The half-life at 2 μM [1, 3] was 13.7 min, the microsomal CLint at 2 μM [1, 3] was 101 µL/min/mg and the “Remaining Percentage (%)” value ([1]; human liver microsomes, With Cofactors, 0 min) was 100.00%. The “Remaining Percentage (%)” value ([1]; human liver microsomes, With Cofactors, 30 min) was 26.55%, the “Remaining Percentage (%)” value ([1]; human liver microsomes, With Cofactors, 60 min) was 4.78% and the “Remaining Percentage (%)” value ([1]; human liver microsomes, Without Cofactors, 0 min) was 100.00%. The “Remaining Percentage (%)” value ([1]; human liver microsomes, Without Cofactors, 30 min) was 98.77%, the “Remaining Percentage (%)” value ([1]; human liver microsomes, Without Cofactors, 60 min) was 104.91% and the CLint scaled at 2 μM ([1]; human liver microsomes) was 127 mL/min/kg. For the same molecule, the half-life at 2 μM [2, 4] was 9.7 min, the CLint scaled at 2 μM ([2]; pooled liver microsomes, rat liver microsomes) was 256 mL/min/kg and the microsomal CLint at 2 μM [2, 4] was 143 µL/min/mg. For the same molecule, the “Predicted hepatic CL” value ([2]; rat liver microsomes) was 45.41 mL/min/kg, the “Remaining Percentage (%)” value ([2]; rat liver microsomes, With Cofactors, 0 min) was 100.00% and the “Remaining Percentage (%)” value ([2]; rat liver microsomes, With Cofactors, 30 min) was 10.63%. For the same molecule, the “Remaining Percentage (%)” value ([2]; rat liver microsomes, With Cofactors, 60 min) was 1.37%, the “Remaining Percentage (%)” value ([2]; rat liver microsomes, Without Cofactors, 0 min) was 100.00% and the “Remaining Percentage (%)” value ([2]; rat liver microsomes, Without Cofactors, 30 min) was 96.79%. The “Remaining Percentage (%)” value ([2]; rat liver microsomes, Without Cofactors, 60 min) was 100.64%.
For CSc1ccc2[nH]cc(CCN(C(C)C)C(C)C)c2c1 [Compound I-17, N-Isopropyl-N-(2-(5-(methylthio)-1H-indol-3-yl)ethyl)propan-2-amine], the IC50 (5-HT2B receptor) was 221 nM, the Ki (5-HT2B receptor) was 114 nM and the “Predicted hepatic CL” value ([1]; Human liver microsomes) was 19.11 mL/min/kg. For the same molecule, the half-life at 2 μM [1, 5] was 6.99 min, the microsomal CLint at 2 μM [1, 6] was 198 µL/min/mg and the CLint scaled at 2 μM ([1]; Human liver microsomes) was 249 mL/min/kg. For the same molecule, the “Predicted hepatic CL” value ([2]; Rat liver microsomes) was 30.01 mL/min/kg, the microsomal CLint at 2 μM [2, 7] was 36.7 µL/min/mg and the half-life at 2 μM [2, 8] was 37.8 min. It also gave a CLint scaled at 2 μM ([2]; Rat liver microsomes) of 65.8 mL/min/kg.
In the case of CCN(C)CCc1c[nH]c2ccc(SC)cc12 [Compound I-13, N-Ethyl-N-methyl-2-(5-(methylthio)-1H-indol-3-yl)ethan-1-amine], the IC50 (5-HT2B receptor) is reported as 64 nM, the Ki (5-HT2B receptor) is reported as 33.1 nM and the “Predicted hepatic CL” value ([1]; Human liver microsomes) is reported as 18.16 mL/min/kg. The half-life at 2 μM [1, 5] was 11.7 min, the microsomal CLint at 2 μM [1, 6] was 118 µL/min/mg and the CLint scaled at 2 μM ([1]; Human liver microsomes) was 148 mL/min/kg. The “Predicted hepatic CL” value ([2]; Rat liver microsomes) was 42.35 mL/min/kg, the microsomal CLint at 2 μM [2, 7] was 102 µL/min/mg and the half-life at 2 μM [2, 8] was 13.7 min. It also gave a CLint scaled at 2 μM ([2]; Rat liver microsomes) of 182 mL/min/kg.
For CSc1ccc2[nH]cc(CCN(C)C(C)C)c2c1 [Compound I-19, N-Methyl-N-(2-(5-(methylthio)-1H-indol-3-yl)ethyl)propan-2-amine], the IC50 (5-HT2B receptor) was 276 nM, the Ki (5-HT2B receptor) was 143 nM and the “Predicted hepatic CL” value ([1]; Human liver microsomes) was 16.93 mL/min/kg. The half-life at 2 μM [1, 5] was 18.7 min, the microsomal CLint at 2 μM [1, 6] was 74.1 µL/min/mg and the CLint scaled at 2 μM ([1]; Human liver microsomes) was 92.9 mL/min/kg. For the same molecule, the “Predicted hepatic CL” value ([2]; Rat liver microsomes) was 16.73 mL/min/kg, the microsomal CLint at 2 μM [2, 7] was 13.4 µL/min/mg and the half-life at 2 μM [2, 8] was 103 min. It also gave a CLint scaled at 2 μM ([2]; Rat liver microsomes) of 24 mL/min/kg.
With [2H]C([2H])([2H])N(CCc1c[nH]c2ccc(SC)cc12)C([2H])([2H])[2H] [Compound I-1, N,N-Bis(methyl-d3)-2-(5-(methylthio)-1H-indol-3-yl)ethan-1-amine] the IC50 (5-HT2B receptor) was 74.5 nM, the Ki (5-HT2B receptor) was 38.6 nM and the “Predicted hepatic CL” value ([1]; Human liver microsomes) was 19.31 mL/min/kg. The half-life at 2 μM [1, 5] was 6.04 min, the microsomal CLint at 2 μM [1, 6] was 230 µL/min/mg and the CLint scaled at 2 μM ([1]; Human liver microsomes) was 288 mL/min/kg. For the same molecule, the “Predicted hepatic CL” value ([2]; Rat liver microsomes) was greater than 50.17 mL/min/kg, the microsomal CLint at 2 μM [2, 7] was greater than 307 µL/min/mg and the half-life at 2 μM [2, 8] was less than 4.51 min. It also gave a CLint scaled at 2 μM ([2]; Rat liver microsomes) greater than 550 mL/min/kg.
